Data from patent US12077503B2, “Substituted cyclic amides and their use as herbicides” (FMC CORPORATION, priority 2015, dated 2024).
Where two headings read alike, the source gives them in different places.

What was measured:
Assay type in all cases: in vivo
[1] = system: ducksalad (Heteranthera limosa); test: Test B flooded paddy test; conditions: Heteranthera limosa, Flood, 250 g ai/ha
How it was run: (§1)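 2-leaf plants; pots flooded 3 cm over soil; cpd added to paddy water; depth held; greenhouse 13–15 d; visual rating vs controls, 0 = no effect, 100 = complete control.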

rice (Oryra sativa) = test: Test B flooded paddy test; conditions: Oryza sativa, Flood, 250 g ai/ha
How it was run: as §1

[2] = system: barnyardgrass (Echinochloa crus-galli); test: Test B flooded paddy test; conditions: Echinochloa crus-galli, Flood, 250 g ai/ha
How it was run: as §1

[3] = system: sedge, umbrella (small-flower umbrella sedge, Cyperus difformis); test: Test B flooded paddy test; conditions: Cyperus difformis, Flood, 250 g ai/ha
How it was run: as §1

[4] = system: blackgrass (Alopecurus myosuroides); test: Test A postemergence; conditions: Alopecurus myosuroides, post-emergence, 240 h; for pest or weed control at 125 g/ha: 125 g ai/ha
How it was run: (§2)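 Preemergence directed soil spray on seeded pots, or postemergence application to plants 2–10 cm, one- to two-leaf. Solvent mixture non-phytotoxic, with surfactant. Scored ~10 d later, visually, 0–100 vs untreated.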

[5] = system: giant foxtail (Setaria faberii); test: Test A postemergence; conditions: Setaria faberi, post-emergence, 240 h; for pest or weed control at 125 g/ha: 125 g ai/ha
How it was run: as §2

[6] = system: Galium (catchweed bedstraw, Galium aparine); test: Test A postemergence; conditions: Galium, post-emergence, 240 h; for pest or weed control at 125 g/ha: 125 g ai/ha
How it was run: as §2

[7] = system: ryegrass, Italian (Italian ryegrass, Lolium multiflorum); test: Test A postemergence; conditions: Lolium multiflorum, post-emergence, 240 h; for pest or weed control at 125 g/ha: 125 g ai/ha
How it was run: as §2

corn (Zea mays) = test: Test A postemergence; conditions: Zea mays, post-emergence, 240 h
How it was run: as §2

[8] = system: ragweed (common ragweed, Ambrosia elatior); test: Test A postemergence; conditions: Ambrosia artemisiifolia, post-emergence, 240 h; for pest or weed control at 125 g/ha: 125 g ai/ha
How it was run: as §2

[9] = system: pigweed (Amaranthus retroflexus); test: Test A postemergence; conditions: Amaranthus retroflexus, post-emergence, 240 h; for pest or weed control at 125 g/ha: 125 g ai/ha
How it was run: as §2

[10] = system: wheat (Triticum aestivum); test: Test A postemergence; conditions: Triticum aestivum, post-emergence, 240 h; for plant injury at 125 g/ha: 125 g ai/ha
How it was run: as §2

[11] = system: barnyardgrass (Echinochloa crus-galli); test: Test A postemergence; conditions: Echinochloa crus-galli, post-emergence, 240 h; for pest or weed control at 125 g/ha: 125 g ai/ha
How it was run: as §2

Kochia (Kochia scoparia) = test: Test A preemergence; conditions: Bassia scoparia, pre-emergence, 240 h, read-out: Plant response rating, Kochia; for pest or weed control at 125 g/ha: 125 g ai/ha; for pest or weed control at 500 g/ha: 500 g ai/ha
How it was run: as §2

Structure (SMILES): CN1CC(c2cccc(OC/C=C/Cl)c2)C(C(=O)Nc2cccc(F)c2F)C1=O (stereo not drawn) [Compound 772]
- pest or weed control at 250 g/ha ([1]; scale of 0 to 100 where 0 is no effect and 100 is complete control, read-out: Ducksalad plant response rating): 75%
- pest or weed control at 250 g/ha (rice (Oryra sativa); scale of 0 to 100 where 0 is no effect and 100 is complete control, read-out: Rice plant response rating): 0%
- pest or weed control at 250 g/ha ([2]; scale of 0 to 100 where 0 is no effect and 100 is complete control, read-out: Barnyardgrass plant response rating): 0%
- pest or weed control at 250 g/ha ([3]; scale of 0 to 100 where 0 is no effect and 100 is complete control, read-out: Sedge, Umbrella plant response rating): 0%
- pest or weed control at 125 g/ha ([4]; postemergence, visual injury after approximately 10 d, 0 to 100 scale (0 no effect, 100 complete control), read-out: Plant response rating, Blackgrass): 0%
- pest or weed control at 125 g/ha ([5]; postemergence, visual injury after approximately 10 d, 0 to 100 scale (0 no effect, 100 complete control), read-out: Plant response rating, Foxtail, Giant): 30%
- pest or weed control at 125 g/ha ([6]; postemergence, visual injury after approximately 10 d, 0 to 100 scale (0 no effect, 100 complete control), read-out: Plant response rating, Galium): 0%
- pest or weed control at 125 g/ha ([7]; postemergence, visual injury after approximately 10 d, 0 to 100 scale (0 no effect, 100 complete control), read-out: Plant response rating, Ryegrass, Italian): 0%
- Corn plant response rating (crop injury, 0 = no effect, 100 = complete kill) at 125 g/ha (corn (Zea mays); 125 g ai/ha, postemergence, visual injury after approximately 10 d, 0 to 100 scale (0 no effect, 100 complete control)): 0%
- pest or weed control at 125 g/ha ([8]; postemergence, visual injury after approximately 10 d, 0 to 100 scale (0 no effect, 100 complete control), read-out: Plant response rating, Ragweed): 0%
- pest or weed control at 125 g/ha ([9]; postemergence, visual injury after approximately 10 d, 0 to 100 scale (0 no effect, 100 complete control), read-out: Plant response rating, Pigweed): 0%
- plant injury at 125 g/ha ([10]; postemergence, visual injury after approximately 10 d, 0 to 100 scale (0 no effect, 100 complete control), read-out: Plant response rating, Wheat): 0%
- pest or weed control at 125 g/ha ([11]; postemergence, visual injury after approximately 10 d, 0 to 100 scale (0 no effect, 100 complete control), read-out: Plant response rating, Barnyardgrass): 0%
- pest or weed control at 125 g/ha (Kochia (Kochia scoparia); preemergence, visual rating after approx. 10 d, 0 to 100 scale where 0 is no effect and 100 is complete control): 0%
- pest or weed control at 500 g/ha (Kochia (Kochia scoparia); preemergence, 0 to 100 scale, 0 = no effect, 100 = complete control): 30%

Structure (SMILES): CN1C[C@H](c2ccc(C(F)(F)F)cc2)[C@@H](C(=O)Nc2cccc(C#N)c2F)C1=O [Compound 1381]
- pest or weed control at 250 g/ha ([1]; 360 h, visually evaluated after 13 to 15 d, read-out: Plant response rating, Ducksalad (0 to 100 scale where 0 is no effect and 100 is complete control)): 100%
- pest or weed control at 250 g/ha (rice (Oryra sativa); 360 h, visually evaluated after 13 to 15 d, read-out: Plant response rating, Rice (0 to 100 scale where 0 is no effect and 100 is complete control)): 0%
- pest or weed control at 250 g/ha ([2]; 360 h, visually evaluated after 13 to 15 d, read-out: Plant response rating, Barnyardgrass (0 to 100 scale where 0 is no effect and 100 is complete control)): 65%
- pest or weed control at 250 g/ha ([3]; 360 h, visually evaluated after 13 to 15 d, read-out: Plant response rating, Sedge, Umbrella (0 to 100 scale where 0 is no effect and 100 is complete control)): 0%
- pest or weed control at 125 g/ha ([4]; Postemergence, visual rating about 10 d after treatment, read-out: Blackgrass plant response rating (0 to 100 scale)): 40%
- pest or weed control at 500 g/ha ([4]; Postemergence, 500 g ai/ha, visual injury, 0 to 100 scale (0 no effect, 100 complete control), approx. 10 d, read-out: Plant response rating, Blackgrass): 60%
- pest or weed control at 125 g/ha ([5]; Postemergence, visual rating about 10 d after treatment, read-out: Foxtail, Giant plant response rating (0 to 100 scale)): 90%
- pest or weed control at 500 g/ha ([5]; Postemergence, 500 g ai/ha, visual injury, 0 to 100 scale (0 no effect, 100 complete control), approx. 10 d, read-out: Plant response rating, Foxtail, Giant): 90%
- pest or weed control at 125 g/ha ([6]; Postemergence, visual rating about 10 d after treatment, read-out: Galium plant response rating (0 to 100 scale)): 50%
- pest or weed control at 500 g/ha ([6]; Postemergence, 500 g ai/ha, visual injury, 0 to 100 scale (0 no effect, 100 complete control), approx. 10 d, read-out: Plant response rating, Galium): 60%
- pest or weed control at 125 g/ha ([7]; Postemergence, visual rating about 10 d after treatment, read-out: Ryegrass, Italian plant response rating (0 to 100 scale)): 50%
- pest or weed control at 500 g/ha ([7]; Postemergence, 500 g ai/ha, visual injury, 0 to 100 scale (0 no effect, 100 complete control), approx. 10 d, read-out: Plant response rating, Ryegrass, Italian): 60%
- plant injury at 125 g/ha (corn (Zea mays); 125 g ai/ha, Postemergence, visual rating about 10 d after treatment, read-out: Corn plant response rating (0 to 100 scale)): 40%
- Corn plant response rating (crop injury, 0 = no effect, 100 = complete kill) at 500 g/ha (corn (Zea mays); Postemergence, 500 g ai/ha, visual injury, 0 to 100 scale (0 no effect, 100 complete control), approx. 10 d): 60%
- pest or weed control at 125 g/ha ([8]; Postemergence, visual rating about 10 d after treatment, read-out: Ragweed plant response rating (0 to 100 scale)): 50%
- pest or weed control at 500 g/ha ([8]; Postemergence, 500 g ai/ha, visual injury, 0 to 100 scale (0 no effect, 100 complete control), approx. 10 d, read-out: Plant response rating, Ragweed): 60%
- pest or weed control at 125 g/ha ([9]; Postemergence, visual rating about 10 d after treatment, read-out: Pigweed plant response rating (0 to 100 scale)): 70%
- pest or weed control at 500 g/ha ([9]; Postemergence, 500 g ai/ha, visual injury, 0 to 100 scale (0 no effect, 100 complete control), approx. 10 d, read-out: Plant response rating, Pigweed): 70%
- plant injury at 125 g/ha ([10]; Postemergence, visual rating about 10 d after treatment, read-out: Wheat plant response rating (0 to 100 scale)): 30%
- plant injury at 500 g/ha ([10]; Postemergence, 500 g ai/ha, visual injury, 0 to 100 scale (0 no effect, 100 complete control), approx. 10 d, read-out: Plant response rating, Wheat): 50%
- pest or weed control at 125 g/ha ([11]; Postemergence, visual rating about 10 d after treatment, read-out: Barnyardgrass plant response rating (0 to 100 scale, 0 no effect, 100 complete control)): 80%
- pest or weed control at 500 g/ha ([11]; Postemergence, 500 g ai/ha, visual injury, 0 to 100 scale (0 no effect, 100 complete control), approx. 10 d, read-out: Plant response rating, Barnyardgrass): 80%
- pest or weed control at 500 g/ha (Kochia (Kochia scoparia); preemergence, 0 to 100 scale (0 no effect, 100 complete control)): 80%
- pest or weed control at 125 g/ha (Kochia (Kochia scoparia); Preemergence, 0 to 100 scale (0 no effect, 100 complete control)): 80%
